# From article PMC12281475, “Mediator Kinase Inhibitor Selectivity and Activity in Colorectal Cancer” (ACS Chemical Biology, 2025)
# Legend:
# CDK6_CycD3 = target: T1, CDK6_CycD3 (Homo sapiens, UniProt Q00534); assay: Radiometric protein kinase assay (33PanQinase), CDK6_CycD3; type: biochemical; settings: slope of the IC50 fit
# T1 construct: purchased Reaction Biology
# CDK2_CycD1 = target: T2, CDK2_CycD1 (Homo sapiens, UniProt P24941); assay: Radiometric protein kinase assay (33PanQinase), CDK2_CycD1; type: biochemical
# T2 construct: purchased Reaction Biology
# CDK20_CycH = CDK20_CycH (Homo sapiens, UniProt Q8IZL9); assay: Radiometric protein kinase assay (33PanQinase), CDK20_CycH; type: biochemical
# CDK15_CycA2 = target: T3, CDK15_CycA2 (Homo sapiens, UniProt Q96Q40); assay: Radiometric protein kinase assay (33PanQinase), CDK15_CycA2; type: biochemical
# T3 construct: purchased Reaction Biology
# CDK2_CycA2 = target: T4, CDK2_CycA2 (Homo sapiens, UniProt P24941); assay: Radiometric protein kinase assay (33PanQinase), CDK2_CycA2; type: biochemical
# T4 construct: purchased Reaction Biology
# CDK3_CycE1 = target: T5, CDK3_CycE1 (Homo sapiens, UniProt Q00526); assay: Radiometric protein kinase assay (33PanQinase), CDK3_CycE1; type: biochemical; settings: slope of the IC50 fit
# T5 construct: purchased Reaction Biology
# CDK2_CycE1 = target: T6, CDK2_CycE1 (Homo sapiens, UniProt P24941); assay: Radiometric protein kinase assay (33PanQinase), CDK2_CycE1; type: biochemical
# T6 construct: purchased Reaction Biology
# CDK1_CycE1 = target: T7, CDK1_CycE1 (Homo sapiens, UniProt P06493); assay: Radiometric protein kinase assay (33PanQinase), CDK1_CycE1; type: biochemical
# T7 construct: purchased Reaction Biology
# CDK5_p35NCK = target: T8, CDK5_p35NCK (Homo sapiens, UniProt Q00535); assay: Radiometric protein kinase assay (33PanQinase), CDK5_p35NCK; type: biochemical
# T8 construct: purchased Reaction Biology
# CDK9_CycT1 = target: T9, CDK9_CycT1 (Homo sapiens, UniProt P50750); assay: Radiometric protein kinase assay (33PanQinase), CDK9_CycT1; type: biochemical
# T9 construct: purchased Reaction Biology
# CDK9_CycK = target: T10, CDK9_CycK (Homo sapiens, UniProt P50750); assay: Radiometric protein kinase assay (33PanQinase), CDK9_CycK; type: biochemical
# T10 construct: purchased Reaction Biology
# CDK7_CycH_MAT1 = target: T11, CDK7_CycH_MAT1 (Homo sapiens, UniProt P50613); assay: Radiometric protein kinase assay (33PanQinase), CDK7_CycH_MAT1; type: biochemical
# T11 construct: purchased Reaction Biology
# CDK3_CycC = target: T12, CDK3_CycC (Homo sapiens, UniProt Q00526); assay: Radiometric protein kinase assay (33PanQinase), CDK3_CycC; type: biochemical
# T12 construct: purchased Reaction Biology
# CDK16_CycY = target: T13, CDK16_CycY (Homo sapiens, UniProt Q00536); assay: Radiometric protein kinase assay (33PanQinase), CDK16_CycY; type: biochemical
# T13 construct: purchased Reaction Biology
# CDK6_CycD1 = target: T14, CDK6_CycD1 (Homo sapiens, UniProt Q00534); assay: Radiometric protein kinase assay (33PanQinase), CDK6_CycD1; type: biochemical
# T14 construct: purchased Reaction Biology
# CDK4_CycD2 = target: T15, CDK4_CycD2 (Homo sapiens, UniProt P11802); assay: Radiometric protein kinase assay (33PanQinase), CDK4_CycD2; type: biochemical
# T15 construct: purchased Reaction Biology
# CDK4_CycD1 = target: T16, CDK4_CycD1 (Homo sapiens, UniProt P11802); assay: Radiometric protein kinase assay (33PanQinase), CDK4_CycD1; type: biochemical
# T16 construct: purchased Reaction Biology
# CDK11B 357-795_CycK = CDK11B 357-795_CycK (Homo sapiens, UniProt P21127); assay: Radiometric protein kinase assay (33PanQinase), CDK11B 357-795_CycK; type: biochemical
# CDK12_CycK = target: T17, CDK12_CycK (Homo sapiens, UniProt Q9NYV4); assay: Radiometric protein kinase assay (33PanQinase), CDK12_CycK; type: biochemical; settings: slope of the IC50 fit
# T17 construct: purchased Reaction Biology
# CDK20_CycT1 = CDK20_CycT1 (Homo sapiens, UniProt Q8IZL9); assay: Radiometric protein kinase assay (33PanQinase), CDK20_CycT1; type: biochemical
# CDK18_CycY = CDK18_CycY (Homo sapiens, UniProt Q07002); assay: Radiometric protein kinase assay (33PanQinase), CDK18_CycY; type: biochemical
# CDK1_CycB1 = target: T18, CDK1_CycB1 (Homo sapiens, UniProt P06493); assay: Radiometric protein kinase assay (33PanQinase), CDK1_CycB1; type: biochemical
# T18 construct: purchased Reaction Biology
# CDK10_CycQ = CDK10_CycQ (Homo sapiens, UniProt Q15131); assay: Radiometric protein kinase assay (33PanQinase), CDK10_CycQ; type: biochemical
# CDK14_CycY = CDK14_CycY (Homo sapiens, UniProt O94921); assay: Radiometric protein kinase assay (33PanQinase), CDK14_CycY; type: biochemical
# CDK4_CycD3 = target: T19, CDK4_CycD3 (Homo sapiens, UniProt P11802); assay: Radiometric protein kinase assay (33PanQinase), CDK4_CycD3; type: biochemical
# T19 construct: purchased Reaction Biology
# CDK1_CycA2 = target: T20, CDK1_CycA2 (Homo sapiens, UniProt P06493); assay: Radiometric protein kinase assay (33PanQinase), CDK1_CycA2; type: biochemical
# T20 construct: purchased Reaction Biology
# CDK13_CycK = target: T21, CDK13_CycK (Homo sapiens, UniProt Q14004); assay: Radiometric protein kinase assay (33PanQinase), CDK13_CycK; type: biochemical; settings: slope of the IC50 fit
# T21 construct: purchased Reaction Biology
# CDK8 = test system: CDK8; set-up: method as in numbers not given; settings: reporter displacement assay; previously characterized compounds, no method in this paper; ref numbers not given; read-out: IC50 for in vitro CDK8 binding; cited from earlier work
# CDK17_p35NCK = CDK17_p35NCK (Homo sapiens, UniProt Q00537); assay: Radiometric protein kinase assay (33PanQinase), CDK17_p35NCK; type: biochemical
# CDK5_p25NCK = target: T22, CDK5_p25NCK (Homo sapiens, UniProt Q00535); assay: Radiometric protein kinase assay (33PanQinase), CDK5_p25NCK; type: biochemical
# T22 construct: purchased Reaction Biology
# CDK8_CycC = target: T23, CDK8_CycC (Homo sapiens, UniProt P49336); assay: Radiometric protein kinase assay (33PanQinase), CDK8_CycC; type: biochemical
# T23 construct: purchased Reaction Biology
# CDK19_CycC = target: T24, CDK19_CycC (Homo sapiens, UniProt Q9BWU1); assay: Radiometric protein kinase assay (33PanQinase), CDK19_CycC; type: biochemical
# T24 construct: purchased Reaction Biology
# CDK6_CycD2 = target: T25, CDK6_CycD2 (Homo sapiens, UniProt Q00534); assay: Radiometric protein kinase assay (33PanQinase), CDK6_CycD2; type: biochemical
# T25 construct: purchased Reaction Biology
# [1] = highest assay concentration 1.00E-05 M, read-out: IC50
# [2] = highest assay concentration 1.00E-05 M
# T3 sequence (Q96Q40 whole entry): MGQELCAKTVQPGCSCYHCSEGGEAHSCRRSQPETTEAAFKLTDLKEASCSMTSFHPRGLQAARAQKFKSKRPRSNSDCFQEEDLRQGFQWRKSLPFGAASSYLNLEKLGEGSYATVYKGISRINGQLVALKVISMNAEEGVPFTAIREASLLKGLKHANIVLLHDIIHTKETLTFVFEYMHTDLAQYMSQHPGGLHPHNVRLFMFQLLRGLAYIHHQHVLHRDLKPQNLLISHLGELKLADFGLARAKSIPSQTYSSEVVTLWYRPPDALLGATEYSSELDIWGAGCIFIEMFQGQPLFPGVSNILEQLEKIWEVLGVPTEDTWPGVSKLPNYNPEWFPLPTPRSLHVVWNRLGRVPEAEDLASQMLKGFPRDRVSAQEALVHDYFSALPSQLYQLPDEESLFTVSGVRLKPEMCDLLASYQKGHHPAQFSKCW
# T11 sequence (P50613 whole entry): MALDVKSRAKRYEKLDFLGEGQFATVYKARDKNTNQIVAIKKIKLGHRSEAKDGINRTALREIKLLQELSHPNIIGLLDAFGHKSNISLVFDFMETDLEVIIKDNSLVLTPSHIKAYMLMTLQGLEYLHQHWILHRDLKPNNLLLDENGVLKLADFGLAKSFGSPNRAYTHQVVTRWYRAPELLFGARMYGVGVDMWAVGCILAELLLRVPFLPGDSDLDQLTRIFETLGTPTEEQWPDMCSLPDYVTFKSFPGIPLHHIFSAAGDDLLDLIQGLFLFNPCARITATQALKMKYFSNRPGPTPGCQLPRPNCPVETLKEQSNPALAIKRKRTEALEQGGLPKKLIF
# T11 sequence (P51946 whole entry partner): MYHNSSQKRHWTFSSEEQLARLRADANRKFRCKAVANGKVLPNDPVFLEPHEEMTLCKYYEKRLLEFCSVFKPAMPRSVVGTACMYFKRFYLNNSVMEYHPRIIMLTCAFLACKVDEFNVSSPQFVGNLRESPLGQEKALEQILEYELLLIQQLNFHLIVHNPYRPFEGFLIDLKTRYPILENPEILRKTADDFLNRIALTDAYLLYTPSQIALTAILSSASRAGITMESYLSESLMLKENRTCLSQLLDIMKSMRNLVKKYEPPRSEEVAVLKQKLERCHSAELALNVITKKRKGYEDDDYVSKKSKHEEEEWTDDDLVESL
# T11 sequence (P51948 whole entry partner): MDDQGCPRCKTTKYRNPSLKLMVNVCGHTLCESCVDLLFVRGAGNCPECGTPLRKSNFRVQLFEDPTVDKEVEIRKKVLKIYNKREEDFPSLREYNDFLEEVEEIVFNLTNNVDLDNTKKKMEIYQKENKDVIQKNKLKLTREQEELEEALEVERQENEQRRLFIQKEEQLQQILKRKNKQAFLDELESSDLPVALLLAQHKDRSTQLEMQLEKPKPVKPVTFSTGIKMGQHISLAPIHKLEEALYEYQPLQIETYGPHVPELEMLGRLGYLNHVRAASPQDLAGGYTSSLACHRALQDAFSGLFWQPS
# Chain of CDK20_CycT1 (Q8IZL9 whole entry): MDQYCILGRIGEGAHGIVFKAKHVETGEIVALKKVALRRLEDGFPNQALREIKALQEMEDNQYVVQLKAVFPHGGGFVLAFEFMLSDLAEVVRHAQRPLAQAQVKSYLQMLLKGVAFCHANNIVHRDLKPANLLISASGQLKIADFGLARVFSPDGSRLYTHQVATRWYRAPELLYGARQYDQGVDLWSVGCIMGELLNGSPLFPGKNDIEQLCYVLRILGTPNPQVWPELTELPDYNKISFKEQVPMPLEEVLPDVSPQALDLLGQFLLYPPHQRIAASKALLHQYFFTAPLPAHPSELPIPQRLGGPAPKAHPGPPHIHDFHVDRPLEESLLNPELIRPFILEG
# Chain of CDK20_CycH (Q8IZL9 whole entry): as above
# T19 sequence (P11802 whole entry): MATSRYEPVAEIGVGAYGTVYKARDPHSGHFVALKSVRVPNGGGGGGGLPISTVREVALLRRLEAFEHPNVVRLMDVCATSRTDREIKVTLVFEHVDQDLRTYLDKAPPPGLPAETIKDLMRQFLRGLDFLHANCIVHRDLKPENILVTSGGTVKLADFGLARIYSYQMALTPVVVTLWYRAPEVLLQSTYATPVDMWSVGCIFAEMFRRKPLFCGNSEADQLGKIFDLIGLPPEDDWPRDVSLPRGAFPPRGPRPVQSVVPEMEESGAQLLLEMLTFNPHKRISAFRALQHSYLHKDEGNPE
# T19 sequence (P30281 whole entry partner): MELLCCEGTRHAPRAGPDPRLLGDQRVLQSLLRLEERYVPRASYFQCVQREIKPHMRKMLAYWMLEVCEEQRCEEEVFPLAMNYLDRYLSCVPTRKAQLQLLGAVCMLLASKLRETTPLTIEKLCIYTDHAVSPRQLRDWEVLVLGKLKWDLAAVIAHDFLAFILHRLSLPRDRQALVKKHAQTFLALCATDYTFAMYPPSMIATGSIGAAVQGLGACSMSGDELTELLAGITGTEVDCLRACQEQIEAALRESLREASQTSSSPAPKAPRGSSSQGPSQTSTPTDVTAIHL
# T15 sequence (P11802 whole entry): as the sequence (P11802 whole entry) above
# T15 sequence (P30279 whole entry partner): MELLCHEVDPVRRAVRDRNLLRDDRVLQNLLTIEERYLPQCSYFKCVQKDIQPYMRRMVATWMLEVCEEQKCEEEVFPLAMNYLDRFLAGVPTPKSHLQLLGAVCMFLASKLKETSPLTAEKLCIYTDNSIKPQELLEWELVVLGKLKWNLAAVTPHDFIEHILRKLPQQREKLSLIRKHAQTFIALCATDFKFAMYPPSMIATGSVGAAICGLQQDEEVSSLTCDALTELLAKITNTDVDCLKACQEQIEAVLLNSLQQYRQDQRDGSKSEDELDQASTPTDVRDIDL
# T24 sequence (Q9BWU1 whole entry): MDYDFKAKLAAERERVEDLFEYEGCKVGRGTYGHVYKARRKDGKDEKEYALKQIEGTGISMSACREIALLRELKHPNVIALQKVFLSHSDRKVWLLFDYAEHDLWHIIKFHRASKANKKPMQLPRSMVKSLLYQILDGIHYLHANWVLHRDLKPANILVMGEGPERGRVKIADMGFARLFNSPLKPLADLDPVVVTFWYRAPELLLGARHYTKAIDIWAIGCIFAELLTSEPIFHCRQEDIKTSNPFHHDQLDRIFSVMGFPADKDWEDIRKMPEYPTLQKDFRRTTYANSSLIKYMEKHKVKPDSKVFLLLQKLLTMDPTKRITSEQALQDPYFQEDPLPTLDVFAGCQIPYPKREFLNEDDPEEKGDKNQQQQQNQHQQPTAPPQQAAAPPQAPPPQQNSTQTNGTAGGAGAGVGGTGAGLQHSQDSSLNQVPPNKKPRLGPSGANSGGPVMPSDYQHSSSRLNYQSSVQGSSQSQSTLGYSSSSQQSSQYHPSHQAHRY
# T24 sequence (P24863 whole entry partner): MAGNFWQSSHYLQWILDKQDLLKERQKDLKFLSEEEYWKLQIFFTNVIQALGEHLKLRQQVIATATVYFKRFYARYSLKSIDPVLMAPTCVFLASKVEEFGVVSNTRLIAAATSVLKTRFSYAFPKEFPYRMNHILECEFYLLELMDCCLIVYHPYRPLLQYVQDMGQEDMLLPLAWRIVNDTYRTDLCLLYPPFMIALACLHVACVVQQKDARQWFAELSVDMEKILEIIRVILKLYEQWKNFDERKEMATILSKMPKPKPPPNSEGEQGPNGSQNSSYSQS
# T13 sequence (Q00536 whole entry): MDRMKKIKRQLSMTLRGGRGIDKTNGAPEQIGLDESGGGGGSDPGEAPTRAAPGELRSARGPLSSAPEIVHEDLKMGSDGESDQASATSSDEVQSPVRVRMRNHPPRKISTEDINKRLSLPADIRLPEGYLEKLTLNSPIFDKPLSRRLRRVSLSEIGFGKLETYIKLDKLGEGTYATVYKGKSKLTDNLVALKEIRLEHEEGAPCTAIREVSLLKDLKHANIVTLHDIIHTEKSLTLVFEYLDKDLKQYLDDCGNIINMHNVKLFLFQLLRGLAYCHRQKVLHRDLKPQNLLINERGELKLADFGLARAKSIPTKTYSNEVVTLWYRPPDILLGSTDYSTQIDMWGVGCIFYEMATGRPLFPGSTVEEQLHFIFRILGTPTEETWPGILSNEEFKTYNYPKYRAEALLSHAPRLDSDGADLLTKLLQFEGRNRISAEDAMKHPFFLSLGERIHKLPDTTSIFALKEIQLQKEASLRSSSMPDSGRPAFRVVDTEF
# T13 sequence (Q8ND76 whole entry partner): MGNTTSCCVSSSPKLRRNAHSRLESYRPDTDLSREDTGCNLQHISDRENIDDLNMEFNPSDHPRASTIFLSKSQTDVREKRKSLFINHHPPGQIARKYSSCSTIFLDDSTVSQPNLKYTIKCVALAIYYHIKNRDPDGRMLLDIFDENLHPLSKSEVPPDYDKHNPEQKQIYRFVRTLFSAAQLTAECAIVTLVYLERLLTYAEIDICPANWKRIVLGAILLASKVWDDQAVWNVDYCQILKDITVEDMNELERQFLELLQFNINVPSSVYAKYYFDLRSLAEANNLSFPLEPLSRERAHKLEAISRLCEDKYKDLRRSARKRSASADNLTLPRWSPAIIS
# T12 sequence (Q00526 whole entry): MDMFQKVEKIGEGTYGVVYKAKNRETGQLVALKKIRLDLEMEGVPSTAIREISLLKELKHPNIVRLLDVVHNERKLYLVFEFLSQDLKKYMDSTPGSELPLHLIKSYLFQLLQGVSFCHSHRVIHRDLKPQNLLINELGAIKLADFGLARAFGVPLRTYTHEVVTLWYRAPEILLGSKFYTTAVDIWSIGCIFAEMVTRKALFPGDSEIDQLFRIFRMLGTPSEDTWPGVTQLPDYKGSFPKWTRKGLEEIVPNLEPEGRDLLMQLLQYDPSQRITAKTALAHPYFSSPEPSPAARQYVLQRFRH
# T12 sequence (P24863 whole entry partner): as the sequence (P24863 whole entry partner) above
compound,measurement,setting,value
Cn1cc(-c2ccc(-c3cncc(Cl)c3N3CCC4(CCNC4=O)CC3)cc2)cn1 [CCT251545],Hill Slope,CDK6_CycD3,-0.2
same,IC50,CDK2_CycD1; [1],> 10 µM
same,Hill Slope,CDK2_CycD1; slope of the IC50 fit,-0.29
same,IC50,CDK20_CycH; [2],> 10 µM
same,Hill Slope,CDK20_CycH; slope of the IC50 fit,-0.44
same,IC50,CDK15_CycA2; [2],> 10 µM
same,Hill Slope,CDK15_CycA2; slope of the IC50 fit,-0.34
same,IC50,CDK2_CycA2; [1],> 10 µM
same,Hill Slope,CDK2_CycA2; slope of the IC50 fit,-0.46
same,Hill Slope,CDK3_CycE1,-0.16
same,IC50,CDK2_CycE1; [1],> 10 µM
same,Hill Slope,CDK2_CycE1; slope of the IC50 fit,-0.5
same,IC50,CDK1_CycE1; [1],> 10 µM
same,Hill Slope,CDK1_CycE1; slope of the IC50 fit,-0.72
same,IC50,CDK5_p35NCK; [2],> 10 µM
same,Hill Slope,CDK5_p35NCK; slope of the IC50 fit,-1.62
same,IC50,CDK9_CycT1; [2],6.07 µM
same,Hill Slope,CDK9_CycT1; slope of the IC50 fit,-0.94
same,IC50,CDK9_CycK; [2],3.81 µM
same,Hill Slope,CDK9_CycK; slope of the IC50 fit,-0.78
same,IC50,CDK7_CycH_MAT1; [2],> 10 µM
same,Hill Slope,CDK7_CycH_MAT1; slope of the IC50 fit,-0.59
same,IC50,CDK3_CycC,> 10 µM
same,Hill Slope,CDK3_CycC; slope of the IC50 fit,-0.47
same,IC50,CDK16_CycY; [2],> 10 µM
same,Hill Slope,CDK16_CycY; slope of the IC50 fit,-1.1
same,IC50,CDK6_CycD1; [2],> 10 µM
same,Hill Slope,CDK6_CycD1; slope of the IC50 fit,-1.25
same,IC50,CDK4_CycD2; [2],> 10 µM
same,Hill Slope,CDK4_CycD2; slope of the IC50 fit,-0.3
same,IC50,CDK4_CycD1; [2],> 10 µM
same,Hill Slope,CDK4_CycD1; slope of the IC50 fit,-0.31
same,IC50,CDK11B 357-795_CycK; [2],> 10 µM
same,Hill Slope,CDK11B 357-795_CycK; slope of the IC50 fit,-8.69
same,Hill Slope,CDK12_CycK,-0.07
same,IC50,CDK20_CycT1; [2],> 10 µM
same,Hill Slope,CDK20_CycT1; slope of the IC50 fit,-0.39
same,IC50,CDK18_CycY; [2],> 10 µM
same,Hill Slope,CDK18_CycY; slope of the IC50 fit,-0.5
same,IC50,CDK1_CycB1; [2],> 10 µM
same,Hill Slope,CDK1_CycB1; slope of the IC50 fit,-0.74
same,IC50,CDK10_CycQ; [2],> 10 µM
same,Hill Slope,CDK10_CycQ; slope of the IC50 fit,-0.51
same,IC50,CDK14_CycY; [2],> 10 µM
same,Hill Slope,CDK14_CycY; slope of the IC50 fit,-0.82
same,IC50,CDK4_CycD3; [2],> 10 µM
same,Hill Slope,CDK4_CycD3; slope of the IC50 fit,-0.27
same,IC50,CDK1_CycA2; [1],> 10 µM
same,Hill Slope,CDK1_CycA2; slope of the IC50 fit,-0.78
same,Hill Slope,CDK13_CycK,0.15
same,IC50,CDK8,0.005 µM
same,IC50,CDK17_p35NCK; [2],> 10 µM
same,Hill Slope,CDK17_p35NCK; slope of the IC50 fit,-0.17
same,IC50,CDK5_p25NCK; [2],> 10 µM
same,Hill Slope,CDK5_p25NCK; slope of the IC50 fit,-0.59
same,IC50,CDK8_CycC,0.0841 µM
same,Hill Slope,CDK8_CycC; slope of the IC50 fit,-0.56
same,IC50,CDK19_CycC,0.277 µM
same,Hill Slope,CDK19_CycC; slope of the IC50 fit,-0.53
same,IC50,CDK6_CycD2; [2],> 10 µM
same,Hill Slope,CDK6_CycD2; slope of the IC50 fit,-0.64
